IC50 data for 13 compounds are collected here from patent US10280145B2 (Toray Industries, Inc., priority 2015, dated 2019).

T1 sequence (Q08345 439-913 limits assumed): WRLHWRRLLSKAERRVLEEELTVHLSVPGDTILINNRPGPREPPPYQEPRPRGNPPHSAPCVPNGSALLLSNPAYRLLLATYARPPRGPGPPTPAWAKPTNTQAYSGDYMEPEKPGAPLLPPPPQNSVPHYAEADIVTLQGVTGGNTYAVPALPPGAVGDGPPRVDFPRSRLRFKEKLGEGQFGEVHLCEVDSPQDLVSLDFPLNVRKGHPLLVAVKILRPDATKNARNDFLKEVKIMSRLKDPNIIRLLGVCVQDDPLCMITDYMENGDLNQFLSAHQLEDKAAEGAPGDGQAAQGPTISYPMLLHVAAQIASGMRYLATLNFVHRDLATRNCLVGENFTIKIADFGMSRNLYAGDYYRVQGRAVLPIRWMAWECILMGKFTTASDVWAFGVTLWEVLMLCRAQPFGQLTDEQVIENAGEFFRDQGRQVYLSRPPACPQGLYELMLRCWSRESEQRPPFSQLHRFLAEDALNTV

The test has as its target T1, intracellular domain of DDR1 (Homo sapiens, UniProt Q08345).
T1 construct: the intracellular domain of DDR1 (in a final concentration of 5 ng/μL) (Carna Biosciences, Inc.); purchased Carna Biosciences, Inc
Kind of test: Evaluation of DDR1 inhibition activity with HTRF KinEASE-TK kit. It is filed as biochemical. To be noted: DDR1 intracellular domain 5 ng/μL, ATP 25 μm/L, TK Substrate-biotin 1000 nmol/L, room temperature, one hour. How it is done: The DDR1 inhibition activity in the compounds of Examples 1 to 80 was evaluated with HTRF® KinEASE-TK kit (Cisbio Bioassays).
Each test substance was dissolved in dimethyl sulfoxide and then used for the evaluation as described below. Moreover, each of test substances and reagents was diluted in the kinase buffer (Cisbio Bioassays) prepared by adding thereto MgCl2, MnCl2, DTT, and the Supplemental Enzyme buffer (Cisbio Bioassays) to concentrations of 5 mmol/L, 0.5 mmol/L, 0.25 mmol/L, and 50 nmol/L, respectively, and then used. Each test substance (in DMSO in a final concentration of 1%), the intracellular domain of DDR1 (in a final concentration of 5 ng/μL) (Carna Biosciences, Inc.), the phosphate donor ATP (in final concentration of 25 μm/L) (Sigma), and the substrate TK Substrate-biotin (in a final concentration of 1000 nmol/L) (Cisbio Bioassays) were added to a 384-well black plate (Corning) and allowed to react at room temperature for one hour. After completion of the reaction, the TK Antibody-Cryptate (Cisbio Bioassays) and the Streptavidin-XL665 (Cisbio Bioassays) were added thereto and allowed to react at room temperature for one hour. In addition, the plate was provided with a well to which a test substance was not added, and with a well to which a test substance and the intracellular domain of DDR1 were […].
The fluorescence intensity in each well was measured using a multi-label counter (Envision, PerkinElmer; excitation wavelength: 320 nm, measurement wavelength: 665 nm and 620 nm) to calculate a ratio (the fluorescence intensity at 665 nm/the fluorescence intensity at 620 nm). The inhibition rate (%) of a test substance at each concentration was calculated based on the formula below: Inhibition rate (%)=([the ratio obtained from the well containing no test substance]−[the ratio from a well containing a test substance])/([the ratio obtained from the well containing no test substance]−[the ratio obtained from the well containing no intracellular domain of DDR1 and no test substance])×100.
The calculated inhibition rates were fitted to a sigmoidal dose-response curve by regression analysis using the Prism 5.04 (GraphPad Software, Inc.) to calculate the IC50 value of the test substance.
For orientation: Time-resolved FRET reads energy transfer from a long-lived donor to a nearby acceptor.
As usually defined, the IC50 is the concentration that inhibits the measured activity by half. Read a low IC50 as higher potency. `Cc1ccc(C(F)(F)F)cc1NC(=O)N[C@H]1CC[C@H](OCc2ccncc2)CC1` [Example 25, 1-(2-methyl-5-(trifluoromethyl)phenyl)-3-(trans-4-(pyridin-4-ylmethoxy)cyclohexyl)urea] registered an IC50 of 421 nM.
In the case of `COc1ccc(S(F)(F)(F)(F)F)cc1NC(=O)N[C@H]1CC[C@H](OCc2ccncc2)CC1` [Example 26, 1-(2-methoxy-5-(pentafluorosulfanyl)phenyl)-3-(trans-4-(pyridin-4-ylmethoxy)cyclohexyl)urea], it took 82.7 nM to reach half-maximal inhibition (IC50).
With `O=C(Nc1cc(C(F)(F)F)ccc1F)N[C@H]1CC[C@H](OCc2ccncc2)CC1` [Example 27, 1-(2-fluoro-5-(trifluoromethyl)phenyl)-3-(trans-4-(pyridin-4-ylmethoxy)cyclohexyl)urea], the IC50 was 258 nM. Against the preceding compound, the IC50 is about 3.1-fold higher.
The compound `O=C(Nc1cc(C(F)(F)F)ccc1N1CCOCC1)N[C@H]1CC[C@H](OCc2ccncc2)CC1` [Example 28, 1-(2-morpholino-5-(trifluoromethyl)phenyl)-3-(trans-4-(pyridin-4-ylmethoxy)cyclohexyl)urea] showed a half-maximal inhibitory concentration (IC50) of 103 nM. This IC50 lies about 2.5-fold lower than the previous one.
The same measure for `O=C(Nc1cc(C(F)(F)F)ccc1Cl)N[C@H]1CC[C@H](OCc2ccncc2)CC1` [Example 29, 1-(2-chloro-5-(trifluoromethyl)phenyl)-3-(trans-4-(pyridin-4-ylmethoxy)cyclohexyl)urea]: 133 nM.
Turning to `O=C(Nc1cc(C(F)(F)F)ccc1OC1CNC1)N[C@H]1CC[C@H](OCc2ccncc2)CC1` [Example 31, 1-(2-(azetidin-3-yloxy)-5-(trifluoromethyl)phenyl)-3-(trans-4-(pyridin-4-ylmethoxy)cyclohexyl)urea], the 50% inhibitory concentration (IC50) is 76.7 nM.
Consider `O=C(Nc1cc(C(F)(F)F)ccc1OC1CCNCC1)N[C@H]1CC[C@H](OCc2ccncc2)CC1` [Example 32, 1-(2-(piperidin-4-yloxy)-5-(trifluoromethyl)phenyl)-3-(trans-4-(pyridin-4-ylmethoxy)cyclohexyl)urea], for which the IC50 came out at 10 nM.
Compound `CC(=O)N1CC(Oc2ccc(C(F)(F)F)cc2NC(=O)N[C@H]2CC[C@H](OCc3ccncc3)CC2)C1` [Example 33, 1-(2-((1-acetylazetidin-3-yl)oxy)-5-(trifluoromethyl)phenyl)-3-(trans-4-(pyridin-4-ylmethoxy)cyclohexyl)urea] yielded an IC50 of 28 nM.
The compound `CC(=O)N1CCC(Oc2ccc(C(F)(F)F)cc2NC(=O)N[C@H]2CC[C@H](OCc3ccncc3)CC2)CC1` [Example 34, 1-(2-((1-acetylpiperidin-4-yl)oxy)-5-(trifluoromethyl)phenyl)-3-(trans-4-(pyridin-4-ylmethoxy)cyclohexyl)urea] yielded a 50% inhibitory concentration (IC50) of 51 nM.
`O=C(Nc1cc(C(F)(F)F)ccc1O[C@@H]1CCNC1)N[C@H]1CC[C@H](OCc2ccncc2)CC1` [Example 35, 1-(trans-4-(pyridin-4-ylmethoxy)cyclohexyl)-3-(2-((R)-pyrrolidin-3-yloxy)-5-(trifluoromethyl)phenyl)urea] returned a half-maximal inhibitory concentration (IC50) of 88.6 nM. This IC50 is about 1.7-fold higher than that of the compound before.
Compound `O=C(Nc1cc(C(F)(F)F)ccc1O[C@H]1CCNC1)N[C@H]1CC[C@H](OCc2ccncc2)CC1` [Example 36, 1-(trans-4-(pyridin-4-ylmethoxy)cyclohexyl)-3-(2-((S)-pyrrolidin-3-yloxy)-5-(trifluoromethyl)phenyl)urea] registered a half-maximal inhibitory concentration (IC50) of 140 nM.
In turn, `COc1ccc(C(F)(F)F)cc1NC(=O)N[C@H]1CC[C@H](Oc2ccnc(-c3cccnc3)n2)CC1` [Example 37, 1-(2-methoxy-5-(trifluoromethyl)phenyl)-3-(trans-4-((2-(pyridin-3-yl)pyrimidin-4-yl)oxy)cyclohexyl)urea] registered a half-inhibitory concentration (IC50) of 149 nM.
The same measure for `O=C(Nc1cc(C(F)(F)F)ccc1OC1COC1)N[C@H]1CC[C@H](Oc2ccnc(-c3cccnc3)n2)CC1` [Example 38, 1-(2-(oxetan-3-yloxy)-5-(trifluoromethyl)phenyl)-3-(trans-4-((2-(pyridin-3-yl)pyrimidin-4-yl)oxy)cyclohexyl)urea]: 61 nM.
